The values that follow are results of earlier work, collected in PMC3652662 (Journal of molecular recognition : JMR, 2009).

The subject of this data set is HIV-1YU2 gp120. The following applies: SPR direct binding, HIV-1 Env YU2 (clade B) gp120; ref Gopi et al. (2008).

In the case of RINNIPWSEAMM [Peptide 12p1], the ka is 13600 M⁻¹ s⁻¹.
